Reference: PMC11945079, “Gadolinium Complex with Tris-Hydroxypyridinone as an Input for New Imaging Probes: Thermodynamic Stability, Molecular Modeling and Biodistribution” (Molecules, 2025)
Where two headings read alike, the source gives them in different places. Values belong to the compound of their own block, whether it stands above or below them.

Tests used:
[1] = cited from earlier work; for pGd: pH 7.4
[2] = in water; cited from earlier work
[3] = Potentiometric titration of the 1:1 Gd/L system: stability constants of the Gd(III) complexes, pGd, species distribution; format: physicochemical
Description: (§1) All the studies were performed by potentiometric titrations of the ligand alone or in the presence of a 1:1 Gd/L stoichiometric ratio (Figure 1), which allowed for the determination of the protonation constants of KEMPPr(3,4-HP)3, as well as the stability constants of the formed Gd(III) complexes, from the best fitting of the experimental curves with the Hyperquad program (Table 1). Other Gd-to-ligand molar ratios were not considered in the present study, because it was admitted that species with a 1:2 stoichiometric ratio are present only at quite low concentrations for pH ca 7 [10].
Analysis of the potentiometric titration curves (Figure 1), namely those obtained for the Gd(III)/KEMPPr(3,4-HP)3 system under 1:1 (Gd/L) stoichiometry, evidences a change in the deprotonation profile of the ligand due to its coordination to Gd (III). Since some precipitation was detected above pH = 6, the corresponding experimental points were not used in the calculations to obtain the Gd (III) complexation model. The obtained Gd(III) complexation model presents some similarities to that previously found for H3L2 (see Table 1), firstly involving the formation of a bis-chelated GdH4L^4+ species, a GdH2L^2+ tetra-chelated complex, and afterwards the formation of a neutral hexa-coordinated GdL species. […] Concerning the Gd(III)/H3L2 system (in water, CL = CGd = 3.2 × 10^−4 M), the Gd(III) complexation also begins at pH ca 2, and the GdL species forms at pH ca 3.7 and becomes dominant at pH 4.5 [11]. For the Gd (III)/NTP (PrHP)3 system (in water), the GdL species is not involved in the proposed model.
(§2) The compound KEMPPr(3,4-HP)3 was synthesized according to the previously published procedure. The GdCl3 stock solution (9.8 × 10^−3 M) was prepared from the gadolinium salt in HCl 0.1 M medium to avoid hydrolysis, and standardized by inductively coupled plasma emission (ICP). The 0.1 M HCl solution used in the calibration of the glass electrode was obtained from a Titrisol ampoule (Merck, Darmstadt, Germany). The precise amount of HCl in the Gd(III) solution was determined by the standard-addition method using 0.1 M HCl (Titrisol). The titrant solution used in the potentiometric titrations was obtained from a carbonate-free 0.1 M KOH commercial ampoule (Titrisol) and standardized by titration with potassium hydrogen phthalate, and rejected whenever the percentage of carbonate (Gran’s method) was higher than 1% of the total amount of base. The potentiometric studies were performed with an automated potentiometric apparatus containing a Crison micropH 2002 millivoltimeter, a Crison microBu 2031 burette (Crison Instruments, Barcelona, Spain) and a Haake thermostatic bath (Haake Technik GmbH, Vreden, Germany, T = 25.0 ± 0.1 °C), controlled by the PASAT program. The glass and Ag/AgCl reference electrodes were previously conditioned in different DMSO/water mixtures of an increasing DMSO % composition (until 50%) and the response of the glass electrode was measured through the determination of the Nernst parameters by Gran’s method, obtained from strong acid–strong base (HCl/KOH) calibrations.
Potentiometric titrations of compound KEMPPr(3,4-HP)3, in the absence or presence of Gd(III), were performed in 50% (w/w) DMSO/water medium at an ionic strength (I) of 0.1 M KCl, T = 25.0 ± 0.1 °C, using 0.1 M KOH titrant. Each titration was repeated three times, for which the total volume was 20 mL, the total concentration of ligand (CL) was 3.2 × 10^−4 M and the Gd^3+/KEMPPr(3,4-HP)3 molar ratios were 0:1 and 1:1.
The stepwise protonation constants, Ki = [HiL]/[Hi−1L][H] of the ligand, and the global stability constants of the Gd(III) complex, β (GdmHhL) = [GdmHhLl]/[Gd]^m[H]^h[L]^l, were calculated by fitting the potentiometric data with the Hyperquad 2003 software. […]

[4] = Potentiometric titration of the ligand alone: protonation constants and species distribution; format: physicochemical
Description: as §1
as §2, with “calibrations. […]” for “calibrations.”
The stepwise protonation constants, Ki = [HiL]/[Hi−1L][H] of the ligand, and the global stability constants of the Gd(III) complex, β (GdmHhL) = [GdmHhLl]/[Gd]^m[H]^h[L]^l, were calculated by fitting the potentiometric data with the Hyperquad 2003 software. The gadolinium hydrolysis model and ionic product of water (Kw) were determined under the same experimental conditions (50% (w/w) DMSO/water medium, I = 0.1 M KCl, T = 25.0 ± 0.1 °C) and the values obtained for the stability constants (log β (GdH−2) = −15.17, log β (GdH−3) = −24.06) were included in the equilibrium model as well as the value of Kw (10^−14.95). […]

[5] = Literature Gd(III) complex stability constants and pGd of comparison ligands; format: physicochemical; settings: pH = 7, CL = 10^−5 M, CL/CGd = 10, from constants in water
[6] = in water, CL = CGd = 3.2 × 10^−4 M
[7] = 50% w/w DMSO/water, CL = 3.2 × 10^−4 M, 1:1
[8] = 50% w/w DMSO/water, T = 25.0 ± 0.1 °C, I = 0.1 M KCl
[9] = physiological pH (7.4), 50% (w/w) DMSO/water

Structure (SMILES): O=C(O)CN1CCN(CC(=O)O)CCN(CC(=O)O)CCN(CC(=O)O)CC1 [DOTA, 1,4,7,10-tetraazacyclododecane N,N′,N″,N‴-tetra-acetic acid]
- pGd [1]: 20.4

Structure (SMILES): O=C(O)CN(CCN(CC(=O)O)CC(=O)O)CCN(CC(=O)O)CC(=O)O [DTPA, diethylenetriamine penta-acetic acid]
- pGd [1]: 19.1

Structure (SMILES): Cc1c(O)c(=O)ccn1CCCNC(=O)CCC(CCC(=O)NCCCn1ccc(=O)c(O)c1C)(CCC(=O)NCCCn1ccc(=O)c(O)c1C)[N+](=O)[O-] [H3L2]
- pH at which Gd(III) complexation begins [1, 6]: ~2
- pH at which the GdL species becomes dominant [1, 6]: 4.5
- pH at which the GdL species forms [1, 6]: ~3.7
- log β (GdmHhLl), (m,h,l) = (1,0,1) (log KGdL) ([1]; in water): 21.22(5)
- log β (GdmHhLl), (m,h,l) = (1,2,1) ([1]; in water): 30.03(6)
- log β (GdmHhLl), (m,h,l) = (1,4,1) ([1]; in water): 37.74(4)
- pGd (−log [Gd(III)]) ([1]; pH = 7, CL = 10^−5 M, CL/CGd = 10, in water): 14.3
- difference between log K4 and log K5 [2]: 1.15

- pH at which Gd(III) complexation begins [3, 7]: ~2
- pH at which the GdL complex becomes prevalent [3, 7]: 4.8
- pH at which the neutral GdL complex begins to form [3, 7]: ~3.5
- log β (GdmHhLl), (m,h,l) = (1,0,1) (log β GdL) [3, 8]: 26.59(8)
- log β (GdmHhLl), (m,h,l) = (1,1,1) [3, 8]: 31.30(4)
- log β (GdmHhLl), (m,h,l) = (1,2,1) [3, 8]: 35.17(7)
- log β (GdmHhLl), (m,h,l) = (1,4,1) [3, 8]: 41.35(8)
- log β (GdmHhLl), (m,h,l) = (1,0,1) (log β GdL) ([3]; 50% w/w DMSO/water, T = 25.0 ± 0.1 °C, I = 0.1 M KCl, listed as H3L): 26.59
- pGd (−log [Gd(III)]) ([3]; pH = 6, CL = 10^−5 M, CL/CGd = 10, 50% w/w DMSO/water): 13.2
- difference between log K2 and log K3 ([4]; 50% w/w DMSO/water): 1.1
- composition of the solution: H3L species [4, 9]: 99.95%
- composition of the solution: monocharged H4L^+ species [4, 9]: 0.05%
- pH range of predominance of the neutral H3L species ([4]; species distribution, CL = 3.2 × 10^−4 M, 50% (w/w) DMSO/water): 3.4–9.9
Structure (SMILES): Cc1c(O)c(=O)ccn1CCCNC(=O)C1(C)CC(C)(C(=O)NCCCn2ccc(=O)c(O)c2C)CC(C)(C(=O)NCCCn2ccc(=O)c(O)c2C)C1 (centres unmarked) [KEMPPr(3,4-HP)3]

- pGd (−log [Gd(III)]) [5]: 12.3
Structure (SMILES): Cc1c(O)c(=O)ccn1CCCNC(=O)CCN(CCC(=O)NCCCn1ccc(=O)c(O)c1C)CCC(=O)NCCCn1ccc(=O)c(O)c1C [NTP(PrHP)3]
- log β (GdmHhLl), (m,h,l) = (1,1,1) (log KGdHL) ([1]; in water): 26.35
- log β (GdmHhLl), (m,h,l) = (1,2,1) ([1]; in water): 31.16
- log β (GdmHhLl), (m,h,l) = (1,3,1) ([1]; in water): 35.69
- log β (GdmHhLl), (m,h,l) = (1,3,2) ([1]; in water): 52.3
- log β (GdmHhLl), (m,h,l) = (1,4,1) ([1]; in water): 39.46
- log β (GdmHhLl), (m,h,l) = (1,5,1) ([1]; in water): 42.8
- log β (GdmHhLl), (m,h,l) = (1,5,2) ([1]; in water): 65.3

Structure (SMILES): Cn1ccc(C(=O)NCCN(CCNC(=O)c2ccn(C)c(=O)c2O)CCNC(=O)c2ccn(C)c(=O)c2O)c(O)c1=O [TREN-1-Me-3,2-HOPO]
- log KGdL (thermodynamic stability of the Gd(III) complex) [1]: 19.2
